# Test results as given in patent US12545672B2, “Antibiotic compounds, methods of manufacturing the same, pharmaceutical compositions containing the same and uses thereof” (Debiopharm International S.A., priority 2018, dated 2026).
# Tests used:
# Neisseria gonorrhoeae = experiment: MIC50 by CLSI agar dilution on a panel of N. gonorrhoeae clinical isolates; type: cell-based; details: Neisseria gonorrhoeae; agar dilution, GC agar base, minimum of 15 clinical isolates; read-out: MIC50
# Method: MIC50: MICs were determined in accordance with the appropriate Clinical and Laboratory Standards Institute (CLSI) methodology by the agar dilution susceptbility testing method in GC agar base.
# [1] = target: Neisseria gonorrhoeae FabI (Neisseria gonorrhoeae, UniProt A0ACH0F547); experiment: Neisseria gonorrhoeae FabI inhibition assay (NADH consumption)
# Chain of Neisseria gonorrhoeae FabI (A0ACH0F547 1-261): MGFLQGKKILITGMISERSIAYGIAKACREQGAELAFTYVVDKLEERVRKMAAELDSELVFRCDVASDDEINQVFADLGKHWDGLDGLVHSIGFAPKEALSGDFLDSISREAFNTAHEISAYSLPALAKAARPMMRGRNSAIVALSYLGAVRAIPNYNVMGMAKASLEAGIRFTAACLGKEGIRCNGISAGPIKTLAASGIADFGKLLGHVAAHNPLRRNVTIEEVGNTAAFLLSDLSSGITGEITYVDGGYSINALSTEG
Compound,MIC50 (Neisseria gonorrhoeae),IC50 [1]
"Cc1c(CN(C)C(=O)/C=C/c2cnc3c(c2)NCC(=O)N3)oc2ccccc12 [Compound 10, (E)-N-methyl-N-((3-methylbenzofuran-2-yl)methyl)-3-(3-oxo-1,2,3,4-tetrahydropyrido[2,3-b]pyrazin-7-yl)acrylamide]",< 1 µg/mL,< 10 nM
"Cc1c(CN(C)C(=O)/C=C/c2cnc3c(c2)N[C@H](C)[C@H](O)C(=O)N3)oc2ccccc12 (single isomer, unassigned) [Compound 150]",< 1 µg/mL,< 10 nM
"Cc1c(CN(C)C(=O)/C=C/c2cnc3c(c2)NCC(CO)C(=O)N3)oc2ccccc12 (stereo not drawn) [Compound 270, (E)-3-(3-(hydroxymethyl)-4-oxo-2,3,4,5-tetrahydro-1H-pyrido[2,3-b][1,4]diazepin-8-yl)-N-methyl-N-((3-methylbenzofuran-2-yl)methyl)acrylamide]",< 1 µg/mL,< 10 nM
"Cc1oc2c(N)cccc2c1CN(C)C(=O)/C=C/c1cnc2c(c1)NCCC(=O)N2 [Compound 75, (E)-N-((7-Amino-2-methylbenzofuran-3-yl)methyl)-N-methyl-3-(4-oxo-2,3,4,5-tetrahydro-1H-pyrido[2,3-b][1,4]diazepin-8-yl)acrylamide]",< 1 µg/mL,< 10 nM
"Cc1oc2c(Oc3ccc4c(c3)OCC4)cccc2c1CN(C)C(=O)/C=C/c1cnc2c(c1)NC(C)(C)C(=O)N2 [Compound 164, (E)-N-((7-((2,3-dihydrobenzofuran-6-yl)oxy)-2-methylbenzofuran-3-yl)methyl)-3-(2,2-dimethyl-3-oxo-1,2,3,4-tetrahydropyrido[2,3-b]pyrazin-7-yl)-N-methylacrylamide]",< 1 µg/mL,< 10 nM
"Cc1oc2c(N)cccc2c1CN(C)C(=O)/C=C/c1cnc2c(c1)CCCC(=O)N2 [Compound 168, (E)-N-((7-amino-2-methylbenzofuran-3-yl)methyl)-N-methyl-3-(8-oxo-6,7,8,9-tetrahydro-5H-pyrido[2,3-b]azepin-3-yl)acrylamide]",< 1 µg/mL,< 10 nM
"Cc1oc2ccccc2c1CN(C)C(=O)/C=C/c1cnc2c(c1)NCC(C)(CO)C(=O)N2 (stereo not drawn) [Compound 39, (E)-3-(3-(Hydroxymethyl)-3-methyl-4-oxo-2,3,4,5-tetrahydro-1H-pyrido[2,3-b][1,4]diazepin-8-yl)-N-methyl-N-((2-methylbenzofuran-3-yl)methyl)acrylamide]",< 1 µg/mL,< 10 nM
"Cc1oc2ccccc2c1CN(C)C(=O)/C=C/c1cnc2c(c1)NC[C@](C)(CO)C(=O)N2 (single isomer, unassigned) [Compound 41]",< 1 µg/mL,< 10 nM
"N#Cc1cccc(Oc2ccc(C3=C[C@H]4CN(C(=O)/C=C/c5cnc6c(c5)NCCC(=O)N6)C[C@H]4C3)cc2)c1 [Compound 123, 3-(4-((3rS,6rR)-2-((E)-3-(4-Oxo-2,3,4,5-tetrahydro-1H-pyrido[2,3-b][1,4]diazepin-8-yl)acryloyl)-1,2,3,3r,4,6r-hexahydrocyclopenta[c]pyrrol-5-yl)phenoxy)benzonitrile]",< 1 µg/mL,< 10 nM
"Cc1c(CN(C)C(=O)/C=C/c2cnc3c(c2)NCCC(=O)N3)oc2cccc(N)c12 [Compound 7, (E)-N-((4-amino-3-methylbenzofuran-2-yl)methyl)-N-methyl-3-(4-oxo-2,3,4,5-tetrahydro-1H-pyrido[2,3-b][1,4]diazepin-8-yl)acrylamide]",< 1 µg/mL,< 10 nM
"COc1cccc(Oc2cccc3c(CN(C)C(=O)/C=C/c4cnc5c(c4)CCCC(=O)N5)c(C)oc23)c1 [Compound 186, (E)-N-((7-(3-methoxyphenoxy)-2-methylbenzofuran-3-yl)methyl)-N-methyl-3-(8-oxo-6,7,8,9-tetrahydro-5H-pyrido[2,3-b]azepin-3-yl)acrylamide]",< 1 µg/mL,< 10 nM
"Cc1oc2c(Oc3ccc4c(c3)OCC4)cccc2c1CN(C)C(=O)/C=C/c1cnc2c(c1)NC[C@@](C)(O)C(=O)N2 [Compound 182, (R,E)-N-((7-((2,3-dihydrobenzofuran-6-yl)oxy)-2-methylbenzofuran-3-yl)methyl)-3-(3-hydroxy-3-methyl-4-oxo-2,3,4,5-tetrahydro-1H-pyrido[2,3-b][1,4]diazepin-8-yl)-N-methylacrylamide]",< 1 µg/mL,< 10 nM
"Cc1c(CN(C)C(=O)/C=C/c2cnc3c(c2)NC[C@@](C)(O)C(=O)N3)oc2cccc(N)c12 [Compound 143, (R,E)-N-((4-amino-3-methylbenzofuran-2-yl)methyl)-3-(3-hydroxy-3-methyl-4-oxo-2,3,4,5-tetrahydro-1H-pyrido[2,3-b][1,4]diazepin-8-yl)-N-methylacrylamide]",< 1 µg/mL,< 10 nM
"Cc1c(CN(C)C(=O)/C=C/c2cnc3c(c2)NCC(C)(CO)C(=O)N3)oc2ccccc12 (stereo not drawn) [Compound 31, (E)-3-(3-(hydroxymethyl)-3-methyl-4-oxo-2,3,4,5-tetrahydro-1H-pyrido[2,3-b][1,4]diazepin-8-yl)-N-methyl-N-((3-methylbenzofuran-2-yl)methyl)acrylamide]",< 1 µg/mL,< 10 nM
"Cc1c(CN(C)C(=O)/C=C/c2cnc3c(c2)NC(C)(CO)C(=O)N3)oc2ccccc12 (stereo not drawn) [Compound 84, (E)-3-(2-(Hydroxymethyl)-2-methyl-3-oxo-1,2,3,4-tetrahydropyrido[2,3-b]pyrazin-7-yl)-N-methyl-N-((3-methylbenzofuran-2-yl)methyl)acrylamide]",< 1 µg/mL,< 10 nM
"C[C@@]1(O)CNc2cc(/C=C/C(=O)N3C[C@H]4CC(c5ccc(Oc6ccccc6)cc5)=C[C@H]4C3)cnc2NC1=O [Compound 159, (R)-3-hydroxy-3-methyl-8-((E)-3-oxo-3-((3aS,6aR)-5-(4-phenoxyphenyl)-3,3a,4,6a-tetrahydrocyclopenta[c]pyrrol-2(1H)-yl)prop-1-en-1-yl)-1,2,3,5-tetrahydro-4H-pyrido[2,3-b][1,4]diazepin-4-one]",< 1 µg/mL,< 10 nM
"Cc1c(CN(C)C(=O)/C=C/c2cnc3c(c2)NC(C)(C)C(=O)N3)oc2ccccc12 [Compound 19, (E)-3-(2,2-dimethyl-3-oxo-1,2,3,4-tetrahydropyrido[2,3-b]pyrazin-7-yl)-N-methyl-N-((3-methylbenzofuran-2-yl)methyl)acrylamide]",< 1 µg/mL,< 10 nM
"Cc1c(CN(C)C(=O)/C=C/c2cnc3c(c2)N[C@H](C)[C@@](C)(O)C(=O)N3)oc2ccccc12 [Compound 207, (E)-3-(3-hydroxy-2,3-dimethyl-4-oxo-2,3,4,5-tetrahydro-1H-pyrido[2,3-b][1,4]diazepin-8-yl)-N-methyl-N-((3-methylbenzofuran-2-yl)methyl)acrylamide]",< 1 µg/mL,–
"Cc1c(CN(C)C(=O)/C=C/c2cnc3c(c2)N[C@H](C)[C@@](C)(O)C(=O)N3)oc2ccccc12 (racemic) [Compound 207, (E)-3-(3-hydroxy-2,3-dimethyl-4-oxo-2,3,4,5-tetrahydro-1H-pyrido[2,3-b][1,4]diazepin-8-yl)-N-methyl-N-((3-methylbenzofuran-2-yl)methyl)acrylamide]",–,< 10 nM
